Results from patent EP4725948A1, “PYRROLO[2,3-D]PYRIMIDIN-4-AMINE DERIVATIVE AND USE THEREOF IN MEDICINE” (Haisco Pharmaceutical Group Co., Ltd., priority 2023, dated 2024).

Key:
sGC protein = target: T1, sGC protein (Homo sapiens, UniProt Q02108+Q02153); assay: cGMP detection experiment in LNCap cells; type: cell-based; details: cGMP production in LNCap cells; 20 µM DETA-NO pre-incubation; relative to compound A
T1 construct: LNCap is a human prostate cancer cell line that expresses sGC protein; host or cells: LNCap (human prostate cancer cell line)
T1 sequence (Q02108 1-690): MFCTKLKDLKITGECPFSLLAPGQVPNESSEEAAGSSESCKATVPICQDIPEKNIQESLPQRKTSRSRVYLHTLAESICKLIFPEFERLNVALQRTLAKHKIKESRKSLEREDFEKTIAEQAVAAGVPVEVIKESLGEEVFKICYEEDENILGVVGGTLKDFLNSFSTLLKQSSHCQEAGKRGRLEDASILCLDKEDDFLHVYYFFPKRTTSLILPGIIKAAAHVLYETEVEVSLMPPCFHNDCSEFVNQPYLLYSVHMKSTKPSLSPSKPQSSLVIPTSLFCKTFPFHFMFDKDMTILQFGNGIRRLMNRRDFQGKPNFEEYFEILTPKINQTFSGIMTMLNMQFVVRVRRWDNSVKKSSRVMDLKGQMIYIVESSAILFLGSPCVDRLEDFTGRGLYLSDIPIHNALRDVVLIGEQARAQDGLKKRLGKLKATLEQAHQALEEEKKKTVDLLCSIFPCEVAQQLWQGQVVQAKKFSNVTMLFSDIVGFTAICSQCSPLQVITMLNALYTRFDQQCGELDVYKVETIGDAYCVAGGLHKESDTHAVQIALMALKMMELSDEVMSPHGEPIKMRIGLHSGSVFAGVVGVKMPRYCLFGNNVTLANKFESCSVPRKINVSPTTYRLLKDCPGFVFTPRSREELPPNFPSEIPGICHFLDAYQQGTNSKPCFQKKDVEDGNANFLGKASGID
T1 sequence (Q02153 1-619): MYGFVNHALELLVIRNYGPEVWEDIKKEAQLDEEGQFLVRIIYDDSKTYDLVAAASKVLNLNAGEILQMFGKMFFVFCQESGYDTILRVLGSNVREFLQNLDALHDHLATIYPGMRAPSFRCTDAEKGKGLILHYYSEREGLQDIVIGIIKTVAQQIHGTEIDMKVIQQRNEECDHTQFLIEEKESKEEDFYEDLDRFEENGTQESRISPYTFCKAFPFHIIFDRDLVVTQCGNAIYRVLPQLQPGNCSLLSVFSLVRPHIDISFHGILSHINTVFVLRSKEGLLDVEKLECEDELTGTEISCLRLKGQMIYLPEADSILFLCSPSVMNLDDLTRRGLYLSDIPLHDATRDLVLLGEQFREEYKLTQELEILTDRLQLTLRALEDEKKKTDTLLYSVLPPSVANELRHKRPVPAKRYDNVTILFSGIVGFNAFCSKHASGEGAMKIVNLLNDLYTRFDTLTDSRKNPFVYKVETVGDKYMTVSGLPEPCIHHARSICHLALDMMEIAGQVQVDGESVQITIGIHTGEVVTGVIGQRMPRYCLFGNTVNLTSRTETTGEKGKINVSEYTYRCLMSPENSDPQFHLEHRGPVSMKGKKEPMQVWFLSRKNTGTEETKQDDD
Procedure: LNCap is a human prostate cancer cell line that expresses sGC protein. […] On the day of the detection, the cells were reselected in assay buffer (EBSS assay buffer+[…] of MgCl2+10 mM HEPES+0.05% BSA) at a density of 2 × 10^5/mL. 0.5 mM IBMX was added to prevent cGMP degradation.
The cells were pre-incubated with 20 µM diethylenetriamine/nitric oxide (DETA-NO) at 37°C for 30 minutes, and then different concentrations of the compounds were added. The mixture was further incubated at room temperature for 1 h. After the incubation was completed, the reaction was terminated, and intracellular cGMP levels were measured according to the instructions for the CisBio kit (Cisbio, 62GM2PEC).

[1] = Pharmacokinetic test in rats (inhalation administration); details: for Lung AUC0-t/plasma AUC0-t / Lung AUC0-t / Lung Cmax: SD rats, single inhalation dose 0.03 mg/kg; for Lung AUC0-t / Lung Cmax: lung tissue
Procedure: Experimental objective: In this experiment, the test compound was administered as a single dose via inhalation to SD rats, and the concentrations of the test compound in rat plasma and lungs were determined to evaluate the pharmacokinetic characteristics and bioavailability of the test compound in the rats.
Experimental animals: Male SD rats, 180-200 g, purchased from Chengdu Dossy Experimental Animals Co., Ltd.
Experimental method: On the day of the experiment, SD rats were randomly assigned into 6 groups according to body weight (for each compound), with 2 rats in each group. The rats were fasted with water available for 12 to 16 hours one day before the administration, and were fed 4 hours after the administration.
Plasma sampling: before and after the administration, blood was taken from the orbits of the rats under isoflurane anaesthesia, and placed in an EDTAK2 centrifuge tube. Centrifugation was performed at 6000 rpm at 4°C for 10 min, and the plasma was collected.
Lung tissue sampling: Animals from each group were euthanised by CO2 inhalation at 0.25, 0.5, 1, 4, 7 and 24 hours after the administration. Then, the animal was dissected to collect lung tissue, which was rinsed with physiological saline, dried with filter paper, weighed in the balance, kept on wet ice and homogenised within 2 hours using a 6-fold volume (i.e., 6 mL per 1 g of tissue) of homogenisation buffer (50% methanol-water).
Before analysis and detection, all samples were stored at -60°C. The samples were analysed quantitatively by LC-MS/MS.

[2] = AE frequency, riociguat group, cited from earlier work
[3] = target: T2, soluble guanylate cyclase (sGC) (Homo sapiens, UniProt Q02108+Q02153); assay: In vitro detection experiment for soluble guanylate cyclase (sGC) activity (TR-FRET);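 also: enzyme reaction started with GTP and run for 60 min at 37°C, followed by a 60 min detection step at room temperature, with EC50 obtained by nonlinear curve fitting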
T2 sequence (Q02108 1-690): T1 sequence (Q02108 1-690)
T2 sequence (Q02153 1-619): T1 sequence (Q02153 1-619)
Procedure: First, 100 nL of the compounds at different concentrations were transferred to a 384-well reaction plate (Greiner, Cat. No. 784075) using Echo 655 (LABCYTE, Cat # 655), with the final DMSO concentration of 1% in the reaction mixture; 2 µL of sGC (ICE, Cat. No. S2304F-H07SH2) was added to a 384-well reaction plate, and the mixture was centrifuged at 1000 rpm for 1 min; and then 1 µL of DETA NONOate was added, and the mixture was incubated at 37°C for10 min. After the incubation was completed, 2 µL of GTP was added, and the mixture was centrifuged at 1000 rpm for 1 min and reacted at 37°C for 60 min. In the reaction system, the final concentrations of sGC, GTP, and DETA NONOate were 1.5 nM, 5 µM, and 100 µM, respectively. After the reaction was completed, 5 µL of the test mixture (PerkinElmer, Cat. No. 62GM2PEG) was added and incubated at room temperature for 60 min. The TR-FRET signal (Ratio: 665/620 nm) was read using a microplate reader (BMG, Cat. No. PHERAstar FSX). A nonlinear regression curve was fitted using GraphPad Prism software, and EC50 values were calculated. Compound A (Example 1 in WO 2010065275) was used as a positive reference compound.

[4] = 12-week PATENT-1 study (placebo 2%)

Structure (SMILES)	EC50 (sGC protein) [nM]	Lung AUC0-t/plasma AUC0-t [1]	Lung AUC0-t [1] [ng·h/mL]	Lung Cmax [1] [ng/mL]	further results
CC(C)(Cc1csc(C2(C)C(=O)Nc3nc(-n4nc(CCC(F)(F)C(F)(F)F)c5cc(Cl)ccc54)nc(N)c32)n1)C(=O)O (single isomer, unassigned) [Compound 4-1]	< 500	77.1	2462	2352	–
COC(=O)N(C)c1c(N)nc(-c2nn(Cc3ccccc3F)c3ncccc23)nc1N [riociguat, Riociguat]	–	–	–	–	constipation ([2]; 12-week PATENT-1 study (placebo 1%)): 5%; anaemia [2, 4]: 7%; gastrooesophageal reflux disease [2, 4]: 5%; hypotension ([2]; 12-week PATENT-1 study (placebo 4%)): 10%; vomiting ([2]; 12-week PATENT-1 study (placebo 7%)): 10%; diarrhoea ([2]; 12-week PATENT-1 study (placebo 8%)): 12%; dizziness ([2]; 12-week PATENT-1 study (placebo 13%)): 20%
CC(C)(Cc1csc(C2(C)C(=O)Nc3nc(-n4nc(Cc5ccccc5F)c5cc(Cl)ccc54)nc(N)c32)n1)C(=O)O (single isomer, unassigned) [Compound 32-1]	< 500	–	–	–	–
CC(C)(Cc1csc([C@]2(C)C(=O)Nc3nc(-n4nc(CCC(F)(F)C(F)(F)F)c5cc(F)ccc54)nc(N)c32)n1)C(=O)O [Compound 17-1]	< 500	48.4	2021	1754	–
CC(C)(Cc1coc(C2(C)C(=O)Nc3nc(-n4c(=O)n(CC5CCCCC5)c5c(F)cccc54)nc(N)c32)n1)C(=O)O (stereo not shown) [Trifluoroacetate of compound 27]	< 500	–	–	–	EC50 [3]: < 20 nM
CC(C)(Cc1csc(C2(C)C(=O)Nc3nc(-n4nc(Cc5ccccc5F)c5ncc(F)cc54)nc(N)c32)n1)C(=O)O (single isomer, unassigned) [Compound 35-1]	< 500	–	5432	2545	–
CC(C)(Cc1csc(C2(C)C(=O)Nc3nc(-n4c(=O)n(Cc5ccccc5F)c5c(F)cccc54)nc(N)c32)n1)C(=O)O (single isomer, unassigned) [Compound 15-1]	< 500	–	–	–	–
CC(C)(Cc1csc(C2(C)C(=O)Nc3nc(-n4nc(Cc5ccccc5F)c5c(F)cccc54)nc(N)c32)n1)C(=O)O (single isomer, unassigned) [Compound 41-1]	< 500	–	–	–	–

Now from value to compound, other results behind:

EC50 (sGC protein) [nM]	Lung AUC0-t/plasma AUC0-t [1]	Lung AUC0-t [1] [ng·h/mL]	Lung Cmax [1] [ng/mL]	Structure (SMILES)	further results
–	83.6	–	1743	CC(C)(Cc1csc([C@]2(C)C(=O)Nc3nc(-n4c(=O)n(Cc5ccccc5F)c5cc(F)ccc54)nc(N)c32)n1)C(=O)O [Compound 38-1]	–
–	65	3626	2979	CC(C)(Cc1csc([C@]2(C)C(=O)Nc3nc(-c4nc(CCC(F)(F)C(F)(F)F)n5ncccc45)nc(N)c32)n1)C(=O)O [Compound 3-1]	–
< 500	–	–	–	CC(C)(Cc1csc([C@]2(C)C(=O)Nc3nc(-n4c(=O)n(CCC(F)(F)C(F)(F)F)c5c(F)cccc54)nc(N)c32)n1)C(=O)O [Compound 14-1]	–
< 500	–	–	–	CC(C)(Cc1csc(C2(C)C(=O)Nc3nc(-n4nc(CCC(F)(F)C(F)(F)F)c5c(F)cccc54)nc(N)c32)n1)C(=O)O (single isomer, unassigned) [Compound 43-1]	–
–	–	3281	1729	CC(C)(Cc1csc(C2(C)C(=O)Nc3nc(-n4nc(CCC(F)(F)C(F)(F)F)c5ncc(F)cc54)nc(N)c32)n1)C(=O)O (single isomer, unassigned) [Compound 37-1]	–
< 500	97.9	608	1183	CC(C)(Cc1csc([C@]2(C)C(=O)Nc3nc(-n4c(=O)n(CCC(F)(F)C(F)(F)F)c5cc(F)ccc54)nc(N)c32)n1)C(=O)O [Compound 31-1]	–
3220	–	220	273	CC(C)(Cc1csc([C@]2(C)C(=O)Nc3nc(-c4nn(CCC(F)(F)C(F)(F)F)c5ncccc45)nc(N)c32)n1)C(=O)O [Control compound 1, reference compound]	Kp ([1]; male, SD, rat, lung and plasma, inhaled or intranasal, 0.03 mg/kg): 29.1
–	659	5173	2825	CC(C)(Cc1cccc([C@@]2(C)C(=O)Nc3nc(-c4nn(CCC(F)(F)C(F)(F)F)c5cc(Cl)cnc45)nc(N)c32)c1)C(=O)O [Compound 6-1]	–
–	43.4	4500	2846	CC(C)(Cc1csc([C@]2(C)C(=O)Nc3nc(-c4nc(CCC(F)(F)C(F)(F)F)n5cc(F)ccc45)nc(N)c32)n1)C(=O)O [Compound 45-1]	–
